One data set addresses T1, rh integrin α4β7 (Homo sapiens, UniProt P13612+P26010).
T1 construct: purchased R&D Systems 5397-A30
The data set is described as follows: α4β7-MAdCAM Competition ELISA. Format: binding. The conditions noted are these: Table 3-B, Potency (α4β7); range classes; read-out: α4β7 ELISA IC50. The method, boiled down: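 Competition read-out was A450 after anti-human IgG1-HRP and TMB detection of bound recombinant human MAdCAM-1 (10 nM final). Peptides were serially diluted 3-fold from a final 10 μM and equilibrated 1 h at room temperature on nickel-captured α4β7 (800 ng/well). The buffer was Tris pH 7.6 with 1 mM Mn2+ or Mg2+.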
Background: An ELISA detects its analyte on a solid surface through an enzyme-linked reagent.

A further data set concerns the target T2, α4β1 (Homo sapiens, UniProt P05556+P13612, DEL729-798).
T2 construct: purchased R&D Systems 5668-A4
Briefly: α4β1-VCAM Competition ELISA. Format: binding. The following applies: Table 3-B, Selectivity (α4β1); range classes; read-out: α4β1 ELISA IC50. Here is the method: A Nunc MaxiSorp plate was coated with rh VCAM-1/CD106 Fc chimera (R&D #862-VC) at 400 ng/well in 50 ul per well in 1×PBS and incubated overnight at 4° C. The solution was removed by shaking and then blocked with 250 ul of 1% BSA in 1×PBS per well. The wells were then incubated at room temperature for 1 hr with shaking. Each well was then washed once with wash buffer (50 mM Tris-HCl pH7.6, 100 mM NaCL, 1 mM MnCl2 or MgCl2, 0.05% Tween-20). 25 ul of serial dilutions of peptides starting at 200 μM in assay buffer (Assay buffer: 50 mM Tris-HCl pH7.6, 100 mM NaCl, 1 mM MnCl2 or MgCl2, 0.05% Tween-20) was added to each well. Additionally, 25 ul of α4β1 (R&D Systems #5668-A4) was added to each well at a fixed concentration of 120 nM. The final peptide and α4β1 concentrations were 100 μM and 60 nM, respectively. The plates were then incubated at 37° C. for 2 hr. The solution was then removed by shaking, and each well was washed three times with wash buffer. 50 ul of 9F10 antibody at 4 ug/ml (purified mouse anti-human CD49d, BD Bioscience Cat#555502) was then added to each well, and the plate was incubated at room temperature for 1 hr with shaking. The solution was again removed by shaking, and each well was washed three times with wash buffer. 50 ul of peroxidase-conjugated AffiniPure Goat anti-mouse IgG (Jackson immune research cat #115-035-003) diluted in 1:5000 in assay buffer was added to each well. The plate was incubated at room temperature for 30 min with shaking. Each well was then washed 3 times with wash buffer. 100 ul of TMB was then added to each well and closely observe during developing time. The reaction was stepped with 2N H2SO4 and absorbance was read at 450 nm.

A further data set addresses α4β7 (Homo sapiens, UniProt P13612+P26010). Briefly: α4β7-MAdCAM Cell Adhesion Assay (RPMI 8866 human cells). Format: cell-based. Details: host or cells: RPMI 8866 human B lymphoblastoid cells. The conditions noted are these: Table 3-B, Potency (α4β7); range classes; read-out: α4β7 cell (Hu) IC50. In a few lines: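 Adhesion read-out: MTT absorbance at 570 nm minus no-cell wells, after three washes. Plates coated with rh MAdCAM-1/Fc received peptide dilutions plus 200,000 RPMI 8866 cells in Mn2+ (1 mM)-supplemented DMEM, 0.1% BSA, HEPES pH 7, incubated 30-45 min, 37 °C.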

Data set [1] in a line: Simulated Intestinal Fluid (SIF) Stability Assay. The following applies: pig, pH 6.5, Table 3-B, > means experiment was stopped at that time and half life was not reached, read-out: Stabilty SIF t1/2. The class given is in vitro ADME, porcine. The method, boiled down:
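Intestinal stability: percent peptide remaining over time, by LC-MS/MS peak-area ratio to internal standard, fitted to first-order decay for half-life. Conditions: 22 μM peptide, 1% pancreatin in pH 6.5 blank FASSIF, 37 °C.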

Read-outs that look alike come from different tables or passages of the source. Numbered stars: 1 amine (or outer) side, 2 acyl side, 3 side chain; on linkers, the order of the positions; unused ones are H or OH. Bridge positions count the residues as written; N and C are the ends. Square brackets hold non-standard residues; d marks the D form. Peptide text beside a SMILES is read from it. I, II: the chains in the order shown. X3 = O=C(COCC(=O)NCCC(=O)[*:2])NCCC(=O)[*:1]; 1Nal = N[C@@H](Cc1cccc2ccccc12)C(=O)O; 2Nal = N[C@@H](Cc1ccc2ccccc2c1)C(=O)O; Diglycolyl = O=C(COCC(=O)[*:2])[*:1]; NMeR = CN[C@@H](CCCNC(=N)N)C(=O)O; β3hE = N[C@@H](CCC(=O)O)CC(=O)O; Pen = CC(C)(S)[C@H](N)C(=O)O; dNMeK = CN[C@H](CCCCN)C(=O)O

T2 sequence (P13612 34-977 limits assumed, stated change not applied): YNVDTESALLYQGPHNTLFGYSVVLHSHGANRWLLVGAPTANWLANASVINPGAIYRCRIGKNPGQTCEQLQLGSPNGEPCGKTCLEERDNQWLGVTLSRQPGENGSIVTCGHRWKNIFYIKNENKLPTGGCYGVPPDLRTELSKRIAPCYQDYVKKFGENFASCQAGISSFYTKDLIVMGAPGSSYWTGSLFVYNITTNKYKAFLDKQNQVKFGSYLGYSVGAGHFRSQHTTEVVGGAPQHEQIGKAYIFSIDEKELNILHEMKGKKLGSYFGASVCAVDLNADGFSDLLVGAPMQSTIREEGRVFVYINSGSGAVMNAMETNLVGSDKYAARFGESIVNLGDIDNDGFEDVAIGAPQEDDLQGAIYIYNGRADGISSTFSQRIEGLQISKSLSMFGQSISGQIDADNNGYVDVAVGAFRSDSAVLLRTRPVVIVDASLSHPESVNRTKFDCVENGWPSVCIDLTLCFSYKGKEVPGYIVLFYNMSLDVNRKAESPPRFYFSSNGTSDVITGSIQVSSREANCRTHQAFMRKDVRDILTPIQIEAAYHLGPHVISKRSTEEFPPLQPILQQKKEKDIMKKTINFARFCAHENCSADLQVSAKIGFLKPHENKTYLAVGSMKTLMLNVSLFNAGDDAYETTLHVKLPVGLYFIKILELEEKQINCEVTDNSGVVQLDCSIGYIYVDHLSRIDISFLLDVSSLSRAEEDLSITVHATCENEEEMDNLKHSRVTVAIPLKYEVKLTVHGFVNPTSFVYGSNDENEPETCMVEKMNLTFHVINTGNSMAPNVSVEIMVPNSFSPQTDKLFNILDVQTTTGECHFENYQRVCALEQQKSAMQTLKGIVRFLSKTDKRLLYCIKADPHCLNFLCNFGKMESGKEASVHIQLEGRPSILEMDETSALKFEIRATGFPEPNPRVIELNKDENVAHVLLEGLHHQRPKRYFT
T2 sequence (P05556 21-728 limits assumed, stated change not applied): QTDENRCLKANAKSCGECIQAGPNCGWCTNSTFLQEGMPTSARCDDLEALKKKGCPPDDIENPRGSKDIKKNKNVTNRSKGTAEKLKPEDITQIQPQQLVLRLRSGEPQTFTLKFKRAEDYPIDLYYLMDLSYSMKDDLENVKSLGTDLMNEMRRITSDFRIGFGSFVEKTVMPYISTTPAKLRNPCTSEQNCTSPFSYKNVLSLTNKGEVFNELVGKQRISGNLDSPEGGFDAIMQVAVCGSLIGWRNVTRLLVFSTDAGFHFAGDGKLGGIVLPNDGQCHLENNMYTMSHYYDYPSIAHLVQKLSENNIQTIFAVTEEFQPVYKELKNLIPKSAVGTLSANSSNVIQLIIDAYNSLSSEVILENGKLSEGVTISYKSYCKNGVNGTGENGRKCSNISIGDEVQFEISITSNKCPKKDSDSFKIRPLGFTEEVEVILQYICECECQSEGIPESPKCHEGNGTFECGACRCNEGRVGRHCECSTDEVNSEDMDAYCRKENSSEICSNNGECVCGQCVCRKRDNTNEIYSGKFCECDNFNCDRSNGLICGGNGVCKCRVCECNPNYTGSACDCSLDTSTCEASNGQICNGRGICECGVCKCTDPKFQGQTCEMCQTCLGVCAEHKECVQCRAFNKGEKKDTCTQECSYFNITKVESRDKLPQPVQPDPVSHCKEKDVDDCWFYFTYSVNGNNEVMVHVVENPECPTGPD
α4β7, sequence (P13612 34-1032): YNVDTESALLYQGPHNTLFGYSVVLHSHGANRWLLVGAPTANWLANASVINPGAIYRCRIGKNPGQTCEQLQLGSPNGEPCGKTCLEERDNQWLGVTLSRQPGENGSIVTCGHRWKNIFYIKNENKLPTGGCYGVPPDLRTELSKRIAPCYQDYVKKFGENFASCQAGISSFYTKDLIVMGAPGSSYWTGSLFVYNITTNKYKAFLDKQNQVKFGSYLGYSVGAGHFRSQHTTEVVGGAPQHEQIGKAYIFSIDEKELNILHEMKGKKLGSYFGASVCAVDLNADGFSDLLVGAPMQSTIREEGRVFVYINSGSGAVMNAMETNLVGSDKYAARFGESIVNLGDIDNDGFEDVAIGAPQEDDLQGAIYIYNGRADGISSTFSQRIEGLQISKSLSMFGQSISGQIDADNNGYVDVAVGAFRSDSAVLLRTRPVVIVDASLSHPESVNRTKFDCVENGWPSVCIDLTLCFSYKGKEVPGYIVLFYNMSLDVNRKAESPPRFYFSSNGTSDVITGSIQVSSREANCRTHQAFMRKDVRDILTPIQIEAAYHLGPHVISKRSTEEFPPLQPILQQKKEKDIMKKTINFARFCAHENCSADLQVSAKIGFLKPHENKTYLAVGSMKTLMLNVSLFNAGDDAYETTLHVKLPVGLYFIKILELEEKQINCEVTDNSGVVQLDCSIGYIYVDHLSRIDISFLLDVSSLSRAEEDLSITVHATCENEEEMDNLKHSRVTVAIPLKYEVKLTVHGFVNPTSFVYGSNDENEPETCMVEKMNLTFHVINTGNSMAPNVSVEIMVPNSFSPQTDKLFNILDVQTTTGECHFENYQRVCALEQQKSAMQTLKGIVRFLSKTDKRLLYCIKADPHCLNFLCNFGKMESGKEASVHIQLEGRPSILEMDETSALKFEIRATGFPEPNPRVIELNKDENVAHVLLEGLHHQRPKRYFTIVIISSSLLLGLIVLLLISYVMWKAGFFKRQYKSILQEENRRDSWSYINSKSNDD
α4β7, sequence (P26010 20-798): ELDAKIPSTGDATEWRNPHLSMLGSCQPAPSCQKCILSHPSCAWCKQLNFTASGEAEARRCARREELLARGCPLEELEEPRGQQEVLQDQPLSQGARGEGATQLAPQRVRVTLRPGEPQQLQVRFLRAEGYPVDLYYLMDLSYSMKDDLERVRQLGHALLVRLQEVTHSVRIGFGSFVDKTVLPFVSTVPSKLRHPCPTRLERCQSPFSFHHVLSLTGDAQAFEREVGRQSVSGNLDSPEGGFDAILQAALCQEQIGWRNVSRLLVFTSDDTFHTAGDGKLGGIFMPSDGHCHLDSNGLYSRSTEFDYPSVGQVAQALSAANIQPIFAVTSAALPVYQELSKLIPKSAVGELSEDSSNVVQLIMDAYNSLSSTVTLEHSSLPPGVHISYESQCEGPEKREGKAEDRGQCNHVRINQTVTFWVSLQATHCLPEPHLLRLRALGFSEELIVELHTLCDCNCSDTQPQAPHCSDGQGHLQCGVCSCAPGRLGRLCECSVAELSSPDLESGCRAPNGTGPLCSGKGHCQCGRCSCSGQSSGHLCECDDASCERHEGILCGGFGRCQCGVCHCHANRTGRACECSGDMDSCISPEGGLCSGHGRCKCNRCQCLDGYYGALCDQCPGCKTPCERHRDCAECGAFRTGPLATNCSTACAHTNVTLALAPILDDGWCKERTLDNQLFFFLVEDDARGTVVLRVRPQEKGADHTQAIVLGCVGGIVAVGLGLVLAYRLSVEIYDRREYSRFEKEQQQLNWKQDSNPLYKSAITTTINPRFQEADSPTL
T1 sequence (P13612 34-977 limits assumed): as the sequence (P13612 34-977 limits assumed, stated change not applied) above
T1 sequence (P26010 20-723 limits assumed): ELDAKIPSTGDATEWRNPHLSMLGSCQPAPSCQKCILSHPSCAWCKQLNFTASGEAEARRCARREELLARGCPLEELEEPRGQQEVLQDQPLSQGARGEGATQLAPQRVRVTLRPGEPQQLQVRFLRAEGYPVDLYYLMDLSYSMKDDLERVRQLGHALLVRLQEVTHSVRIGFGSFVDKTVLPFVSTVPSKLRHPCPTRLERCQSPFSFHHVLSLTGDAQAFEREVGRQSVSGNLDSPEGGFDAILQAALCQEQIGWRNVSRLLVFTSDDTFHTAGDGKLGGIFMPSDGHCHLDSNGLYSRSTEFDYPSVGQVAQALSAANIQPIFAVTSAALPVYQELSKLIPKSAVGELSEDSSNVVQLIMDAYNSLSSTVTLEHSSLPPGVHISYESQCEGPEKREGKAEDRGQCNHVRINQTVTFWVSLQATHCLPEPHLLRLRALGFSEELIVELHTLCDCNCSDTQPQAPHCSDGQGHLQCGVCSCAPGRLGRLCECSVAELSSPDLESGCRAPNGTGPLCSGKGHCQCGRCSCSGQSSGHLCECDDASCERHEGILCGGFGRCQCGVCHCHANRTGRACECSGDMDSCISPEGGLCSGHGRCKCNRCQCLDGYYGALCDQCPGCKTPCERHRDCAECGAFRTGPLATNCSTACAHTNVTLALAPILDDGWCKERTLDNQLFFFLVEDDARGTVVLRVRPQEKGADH

As usually defined, the IC50 is the concentration at which inhibition is half-maximal. As to `CC(=O)N[C@@H]1C(=O)N(C)[C@@H](CCCNC(=N)N)C(=O)N[C@@H](CO)C(=O)N[C@@H](CC(=O)O)C(=O)N[C@@H]([C@@H](C)O)C(=O)N[C@@H](CC(C)C)C(=O)N[C@H](C(=O)N[C@@H](Cc2cccc3ccccc23)C(=O)N[C@@H](CCC(=O)O)C(=O)N(C)[C@H](CCCCN)C(N)=O)C(C)(C)SSC1(C)C` [compound 18] (Ac-[Pen][NMeR]SDTL[Pen][1Nal]E[dNMeK]-NH2; disulfide 1-7), the figures for the IC50 on rh integrin α4β7 and on α4β1 were 10 to 25 nM and 500 to 1000 nM, respectively.
Turning to `CC(=O)N[C@@H]1C(=O)N(C)[C@@H](CCCNC(=N)N)C(=O)N[C@@H](CO)C(=O)N[C@@H](CC(=O)O)C(=O)N[C@@H]([C@@H](C)O)C(=O)N[C@@H](CC(C)C)C(=O)N[C@H](C(=O)N[C@@H](Cc2ccc3ccccc3c2)C(=O)N[C@@H](CCC(=O)O)CC(=O)N[C@H](CCCCNC(=O)COCC(=O)NCCCC[C@@H](NC(=O)C[C@H](CCC(=O)O)NC(=O)[C@H](Cc2ccc3ccccc3c2)NC(=O)[C@H]2NC(=O)[C@H](CC(C)C)NC(=O)[C@H]([C@@H](C)O)NC(=O)[C@H](CC(=O)O)NC(=O)[C@H](CO)NC(=O)[C@H](CCCNC(=N)N)N(C)C(=O)[C@@H](NC(C)=O)C(C)(C)SSC2(C)C)C(N)=O)C(N)=O)C(C)(C)SSC1(C)C` [compound 137] (I: Ac-[Pen][NMeR]SDTL[Pen][2Nal][β3hE][dK]-NH2 / II: Ac-[Pen][NMeR]SDTL[Pen][2Nal][β3hE][dK]-NH2; disulfide I:1-I:7, II:1-II:7; linker I:10-II:10 via Diglycolyl), the figures for the IC50 on rh integrin α4β7, at α4β1 and at α4β7 were < 10 nM, 1000 to 10000 nM and < 10 nM, respectively.
`CC(C)C[C@@H]1NC(=O)[C@H]([C@@H](C)O)NC(=O)[C@H](CC(=O)O)NC(=O)[C@H](CO)NC(=O)[C@H](CCCNC(=N)N)N(C)C(=O)[C@@H](NC(=O)CCNC(=O)COCC(=O)NCCC(=O)N[C@@H]2C(=O)N(C)[C@@H](CCCNC(=N)N)C(=O)N[C@@H](CO)C(=O)N[C@@H](CC(=O)O)C(=O)N[C@@H]([C@@H](C)O)C(=O)N[C@@H](CC(C)C)C(=O)N[C@H](C(=O)N[C@@H](Cc3c[nH]c4ccccc34)C(=O)N[C@@H](CCC(=O)O)C(N)=O)C(C)(C)SSC2(C)C)C(C)(C)SSC(C)(C)[C@@H](C(=O)N[C@@H](Cc2c[nH]c3ccccc23)C(=O)N[C@@H](CCC(=O)O)C(N)=O)NC1=O` [compound 54] (I: [Pen][NMeR]SDTL[Pen]WE-NH2 / II: [Pen][NMeR]SDTL[Pen]WE-NH2; disulfide I:1-I:7, II:1-II:7; linker I:N-II:N via X3): the IC50 at α4β1 is 100 to 500 nM; on α4β7, 25 to 50 nM. Besides, in data set [1] (simulated intestinal fluid (SIF) with porcine pancreatin), the half-life at 22 μM was 32 min.
Take `CC(=O)N[C@@H]1C(=O)N(C)[C@@H](CCCNC(=N)N)C(=O)N[C@@H](CO)C(=O)N[C@@H](CC(=O)O)C(=O)N[C@@H]([C@@H](C)O)C(=O)N[C@@H](CC(C)C)C(=O)N[C@H](C(=O)N[C@@H](Cc2ccc3ccccc3c2)C(=O)N[C@@H](Cc2ccc(O)cc2)C(=O)N[C@H](CCCCNC(=O)COCC(=O)NCCCC[C@@H](NC(=O)[C@H](Cc2ccc(O)cc2)NC(=O)[C@H](Cc2ccc3ccccc3c2)NC(=O)[C@H]2NC(=O)[C@H](CC(C)C)NC(=O)[C@H]([C@@H](C)O)NC(=O)[C@H](CC(=O)O)NC(=O)[C@H](CO)NC(=O)[C@H](CCCNC(=N)N)N(C)C(=O)[C@@H](NC(C)=O)C(C)(C)SSC2(C)C)C(N)=O)C(N)=O)C(C)(C)SSC1(C)C` [compound 23] (I: Ac-[Pen][NMeR]SDTL[Pen][2Nal]Y[dK]-NH2 / II: Ac-[Pen][NMeR]SDTL[Pen][2Nal]Y[dK]-NH2; disulfide I:1-I:7, II:1-II:7; linker I:10-II:10 via Diglycolyl): the IC50 at α4β1 is 100 to 500 nM; on α4β7 it was < 10 nM. Further, the half-life at 22 μM in data set [1] (simulated intestinal fluid (SIF) with 1% porcine pancreatin) was < 20 min.
